In patent publication US20250269039A1, “THERAPEUTIC-OLIGONUCLEOTIDES ACTIVATED BY NUCLEASES” (priority 2020, published 2025):
Values after ≈ are worked out from the molar mass of the structure shown. Like-named read-outs stand apart in the source and are kept apart here.

Tests used:
[1] = test system: S. aureus; assay: Growth inhibition curves / MICs in S. aureus cultures (strain not named or summary over strains); format: cell-based, Staphylococcus aureus; settings: for bacterial growth inhibition: S. aureus cultures, optical density (OD) over 18 h, FIG. 1b; for MIC: Staphylococcus aureus
Experimental: (§1) Antimicrobial susceptibility testing. Minimal inhibitory concentrations (MIC) of all nucleoside analogues and TOUCANs against each bacteria strain were determined using broth microdilution method. A single colony obtained from overnight culture on tryptone soy agar with 5% defibrinated sheep blood was inoculated in cation-adjusted Mueller Hinton Broth and adjusted to 10^6 CFU/mL. TOUCANs were prepared in PBS+/+ (treatment) and serial dilutions were made in 96-well polystyrene round bottom microwell plates with 50 μL final volume for each concentration. PBS+/+ was used as untreated control. Next, 50 μL bacteria solutions were added to each well to a final bacteria concentration of 5×10^5 CFU/mL. Plates were incubated at 37° C. in Cytation 1 Cell Imaging Multimode Reader. Growth curves were obtained by measuring optical densities at 600 nm every 10 minutes for 18 hours using Cytation 1 Cell Imaging Multimode Reader. In addition, visual inspection of the plates was carried out after 18 hours and photographs were taken. MICs were defined as the lowest drug concentration in the microwell at which bacterial growth was not visible at the end of the incubation period. Besides MIC determination, specificity of TOUCAN 7mGe was also shown with subcultures on chromogenic media. For this purpose, 5 μL of different concentrations of each strain were inoculated onto CHROM agar Orientation Media (Becton Dickinson) and the bacterial growth of each bacteria strain tested was observed by naked eye after incubation at 37° C. for 24 hours. Finally, photographs of the chromogenic media were taken.

[2] = test system: S. aureus ATCC 29213 (MSSA); assay: Broth microdilution MIC and growth inhibition; format: cell-based, Staphylococcus aureus; settings: for MIC: Staphylococcus aureus; for % Growth inhibition: mean ± SD, n = 3
Excerpt: (§2) Bacteria strains. S. aureus NCTC 12493 (MRSA), S. aureus ATCC 29213 (MSSA), S. aureus ATCC 43300 (MRSA), S. aureus ATCC 1707 (MRSA), S. aureus ATCC 1717 (MRSA), S. aureus ATCC 1747 (MRSA), S. aureus ATCC 1761 (MRSA), S. aureus ATCC 1766 (MRSA), S. aureus ATCC 1768 (MRSA), S. epidermidis ATCC 35984, E. coli ATCC 25922, K. pneumoniae ATCC 13883, P. mirabilis ATCC 25933, S. enterica ATCC 14028 and P. aeruginosa ATCC 10145 strains were used in this study. Bacteria were initially inoculated onto tryptone soy agar with 5% defibrinated sheep blood (Thermo Fisher Scientific, Inc., Waltham, MA, USA) and incubated at 37° C. for 24 hours. Then, single colonies of each strain were transferred to tryptone soy broth (Thermo Fisher Scientific) for the nuclease activity assay or antimicrobial susceptibility testing, respectively.
as §1

[3] = test system: S. aureus NCTC 12493 (MRSA); assay: Broth microdilution MIC and growth inhibition; format: cell-based, Staphylococcus aureus; settings: for MIC: Staphylococcus aureus; for % Growth inhibition: mean ± SD, n = 3
Excerpt: as §2, §1

[4] = test system: S. aureus (MN+); assay: Nuclease activity assay with culture supernatants; format: biochemical, Staphylococcus aureus
Experimental: (§3) Nuclease activity assay. Nuclease activity of different S. aureus strains was evaluated using the TTprobe and TTprobe 2, along with the S. epidermidis as negative control and Micrococcal Nuclease (MN) as positive control. Single colonies of each bacteria strain isolated on tryptone soy agar were transferred to 50 mL tryptone soy broth and incubated at 37° C. for 24 hours with 200 rpm shaking. After the incubation period, 100 μL volumes of liquid cultures were transferred to a fresh 50 mL tryptone soy broth (1/500 dilution) and incubated under the same conditions for 12 hours. Next, cultures were centrifuged at 4500 g for 30 minutes and the supernatants were used for the nuclease activity assay. Briefly, 8 μL of supernatants were mixed with 1 μL PBS+/+ and 1 μL TT probe. The reactions were incubated at 37° C. for 1 hour. Then, 290 μL of 10 mM EDTA in PBS−/− solution were added to stop the reaction and the final solution was divided into triplicate wells (95 μL each), in a black flat-bottom polystyrene plates (Thermo Scientific F96). Fluorescence intensity was acquired at 485/20 excitation and 528/20 emission filter pair using Cytation 1 Cell Imaging Multimode Reader (Biotek Instruments Inc., USA).

[5] = test system: Staphylococcus epidermidis (MN-); assay: Nuclease activity assay with culture supernatants (negative control); format: biochemical; settings: S. epidermidis cultures; FIG. 3
Experimental: as §3

[6] = test system: S. aureus ATCC 1707 (MRSA); assay: Broth microdilution MIC and growth inhibition; format: cell-based, Staphylococcus aureus; settings: Staphylococcus aureus, 18 h, TOUCAN as NA equivalent, read-out: MIC
Excerpt: as §2, §1

[7] = test system: S. aureus ATCC 1717 (MRSA); assay: Broth microdilution MIC and growth inhibition; format: cell-based, Staphylococcus aureus; settings: Staphylococcus aureus, 18 h, TOUCAN as NA equivalent, read-out: MIC
Excerpt: as §2, §1

[8] = test system: S. aureus ATCC 1747 (MRSA); assay: Broth microdilution MIC and growth inhibition; format: cell-based, Staphylococcus aureus; settings: Staphylococcus aureus, 18 h, TOUCAN as NA equivalent, read-out: MIC
Excerpt: as §2, §1

[9] = test system: S. aureus ATCC 1761 (MRSA); assay: Broth microdilution MIC and growth inhibition; format: cell-based, Staphylococcus aureus; settings: Staphylococcus aureus, 18 h, TOUCAN as NA equivalent, read-out: MIC
Excerpt: as §2, §1

[10] = test system: S. aureus ATCC 1766 (MRSA); assay: Broth microdilution MIC and growth inhibition; format: cell-based, Staphylococcus aureus; settings: Staphylococcus aureus; S. aureus ATCC 1766 (MRSA); 18 h; TOUCAN as NA equivalent; read-out: MIC
Excerpt: as §2, §1

[11] = test system: S. aureus ATCC 1768 (MRSA); assay: Broth microdilution MIC and growth inhibition; format: cell-based, Staphylococcus aureus; settings: Staphylococcus aureus, 18 h, TOUCAN as NA equivalent, read-out: MIC
Excerpt: as §2, §1

[12] = test system: S. aureus ATCC 43300 (MRSA); assay: Broth microdilution MIC and growth inhibition; format: cell-based, Staphylococcus aureus; settings: Staphylococcus aureus, 18 h, TOUCAN as NA equivalent, read-out: MIC
Excerpt: as §2, §1

[13] = test system: S. epidermidis ATCC 35984; assay: Broth microdilution MIC and growth inhibition (control bacteria); format: cell-based, Staphylococcus epidermidis; settings: Staphylococcus epidermidis, ATCC35984; S. epidermidis ATCC 35984; 18 h; TOUCAN as NA equivalent; read-out: MIC
Excerpt: as §2, §1

[14] = test system: E. coli ATCC 25922; assay: as above; format: cell-based, Escherichia coli; settings: Escherichia coli, ATCC25922, 18 h, TOUCAN as NA equivalent, read-out: MIC
Excerpt: as §2, §1

[15] = test system: K. pneumoniae ATCC 13883; assay: as above; format: cell-based; settings: Klebsiella pneumoniae, ATCC13883, 18 h, TOUCAN as NA equivalent, read-out: MIC
Excerpt: as §2, §1

[16] = test system: P. aeruginosa ATCC 10145; assay: as above; format: cell-based; settings: Pseudomonas aeruginosa, ATCC10145, 18 h, TOUCAN as NA equivalent, read-out: MIC
Excerpt: as §2, §1

[17] = test system: S. enterica ATCC 14028; assay: as above; format: cell-based; settings: Salmonella enterica, ATCC14028, 18 h, TOUCAN as NA equivalent, read-out: MIC
Excerpt: as §2, §1

[18] = test system: P. mirabilis ATCC 25933; assay: as above; format: cell-based, Proteus mirabilis; settings: Proteus mirabilis, ATCC25933, 18 h, TOUCAN as NA equivalent, read-out: MIC
Excerpt: as §2, §1

[19] = test system: Pancreatic cancer cells (ASPC-1); assay: Anti-cancer drug susceptibility testing, pancreatic cancer cells, 72 h; format: cell-based; settings: 72 h cultures; Gemcitabine alone, TOUCAN 7mGe spiked with MN; FIG. 13
Experimental: (§4) Anti-cancer drug susceptibility testing for TOUCAN 7mGe. Gemcitabine and equivalent 7mGe solutions were prepared as explained before. Then, 7mGe was pre-exposed to 10 μl of 10 U MN for 1 hour at 37° C. (7mGe+MN). 100 μl of both drugs (Gemcitabine and 7mGe+MN) were added to the related wells and serially diluted using PBS+/+making the final concentrations between 100-2 μg/μl. Breast cancer cells (MDAMB231) and Pancreatic cancer cells (ASPC-1) were prepared as 10.000 cells/ml and 100 μl cell suspensions were added to each well. The plate was incubated at 37° C. for 72 hours. At 48th hour of incubation, 100 μl CyQUANT® Direct Cell Proliferation Assay kit was added to each well. Cell counts and images were taken at the end of 72 hours incubation period using Cytation 1 Cell Imaging Multi-Mode Reader.

[20] = test system: Breast cancer cells (MDAMB231); assay: Anti-cancer drug susceptibility testing, breast cancer cells, 72 h; format: cell-based; settings: 72 h of treatment; Gemcitabine alone, TOUCAN 7mGe spiked with MN; FIG. 14
Experimental: as §4

[21] = test system: Breast cancer cells (MDAMB231); assay: Anti-cancer drug susceptibility testing for TOUCAN 7mDx, breast cancer cells, 96 h; format: cell-based; settings: FIG. 15
Experimental: Anti-cancer drug susceptibility testing for TOUCAN 7mDx. Doxorubicin and equivalent 7mDx solutions were prepared as explained before. Then, 7mDx was pre-exposed to 5 μl of 10 U MN for 1 hour at 37° C. (7mDx+MN). 100 μl of all drugs (Doxorubicin, 7mDx, and 7mDx+MN) were added to the related wells and serially diluted using PBS+/+making the final concentrations between 20-0.3 μg/μl. Breast cancer cells (MDAMB231) were prepared as 20.000 cells/ml and 100 μl cell suspensions were added to each well. The plate was incubated at 37° C. for 96 hours. At 48th hour of incubation, 100 μl CyQUANT® Direct Cell Proliferation Assay kit was added to each well. Cell counts and images were taken at the end of 96 hours incubation period using Cytation 1 Cell Imaging Multi-Mode Reader.

[22] = Table 1, S. aureus ATCC 29213, read-out: MIC
[23] = Table 1, S. aureus NCTC 12493, read-out: MIC

mU-mU-mU-mU-T-T-Ge-mU-mU-mU-mU (UUUUTTGUUUU; chemistry not given here) [TTGe, TOUCAN with Gemcitabine downstream of TT]
bacterial growth inhibition [1]: around 20%

O=c1[nH]c(=O)n([C@H]2C[C@H](O)[C@@H](CO)O2)cc1C(F)(F)F [Trifluridine]
MIC [2]: 10000 ng/mL (≈ 33.8 µM) | % Growth inhibition ([2]; Table 1, S. aureus ATCC 29213): 89.0 ± 5.1% | MIC [3]: 10000 ng/mL (≈ 33.8 µM) | % Growth inhibition ([3]; Table 1, S. aureus NCTC 12493): 88.5 ± 1.1%

mU-mU-mU-mU-Ge-mU-mU-mU-mU [Ge-Control]
bacterial growth inhibition [1]: low growth inhibition efficiency

mU-mU-mU-mU-Ge-T-T-mU-mU-mU-mU (UUUUGTTUUUU; chemistry not given here) [GeTT, TOUCAN with Gemcitabine upstream of TT]
bacterial growth inhibition [1]: low growth inhibition efficiency

Nc1ccn([C@@H]2O[C@H](CO)[C@@H](O)[C@@H]2O)c(=O)n1 [Cytarabine]
MIC [2, 22]: > 40000 ng/mL | % Growth inhibition ([2]; Table 1, S. aureus ATCC 29213): 16.3 ± 6.9% | MIC [3, 23]: > 40000 ng/mL | % Growth inhibition ([3]; Table 1, S. aureus NCTC 12493): 39.4 ± 2.5%

FAM-mU-mU-mU-mU-T-T-mU-mU-mU-mU-TQ2 [TTprobe2]
degradation by nucleases ([4]; S. aureus cultures, FIG. 3): efficient degradation | degradation by nucleases ([4]; all S. aureus strains used in the study, FIG. 4): efficiently | stability in presence of control bacteria [5]: rendered stable

Nc1ccn([C@@H]2O[C@H](CO)[C@@H](O)C2(F)F)c(=O)n1 [Gemcitabine, reference compound]
MIC [6]: 8 ng/mL | MIC [7]: 8 ng/mL | MIC [8]: 8 ng/mL | MIC [9]: 16 ng/mL | MIC [10]: 8 ng/mL | MIC [11]: 8 ng/mL | MIC ([2]; S. aureus ATCC 29213 (MSSA), 18 h, TOUCAN as NA equivalent, read-out: MIC): 4 ng/mL | MIC [2, 22]: 4 ng/mL (≈ 0.0152 µM) | % Growth inhibition ([2]; Table 1, S. aureus ATCC 29213): 94.2 ± 0.04% | MIC [12]: 4 ng/mL | MIC ([3]; S. aureus NCTC 12493 (MRSA), 18 h, TOUCAN as NA equivalent, read-out: MIC): 4 ng/mL | MIC [3, 23]: 4 ng/mL (≈ 0.0152 µM) | % Growth inhibition ([3]; Table 1, S. aureus NCTC 12493): 93.7 ± 0.2% | MIC [13]: 2 ng/mL | MIC [14]: > 40000 ng/mL | MIC [15]: > 40000 ng/mL | MIC [16]: > 40000 ng/mL | MIC [17]: > 40000 ng/mL | MIC [18]: > 40000 ng/mL | MIC ([1]; read-out: MIC values over all S. aureus strains tested): 4 to 16 ng/mL (≈ 0.0152 to 0.0608 µM) | MIC ([1]; S. aureus, strain not given, read-out: MIC): 4 ng/mL (≈ 0.0152 µM) | killing of pancreatic cancer cells (viability) [19]: efficient in killing | therapeutic effect in breast cancer cells (viability) [20]: clear therapeutic effect

mU-mU-mU-mU-T-T-Dx [TOUCAN 7mDx]
effect on viability of breast cancer cells ([21]; 7mDx alone (no nuclease)): did not show a significant effect on viability | therapeutic efficacy in breast cancer cells (viability) ([21]; 7mDx spiked with MN): remarkable therapeutic efficacy

T-T-Ge-mU-mU-mU-mU [SDR probe]
inhibition of bacterial growth (therapeutic efficacy) ([1]; combinations of the R-S-D moieties, FIG. 1c): 30%

Nc1ncnc2c1ncn2[C@@H]1O[C@H](CO)[C@@H](O)[C@@H]1O [Vidarabine]
MIC [2, 22]: > 40000 ng/mL | % Growth inhibition ([2]; Table 1, S. aureus ATCC 29213): 34.1 ± 0.8% | MIC [3, 23]: 40000 ng/mL (≈ 150 µM) | % Growth inhibition ([3]; Table 1, S. aureus NCTC 12493): 85.1 ± 0.8%

O=c1[nH]c(=O)n([C@H]2C[C@H](O)[C@@H](CO)O2)cc1I [Idoxuridine]
MIC [2, 22]: > 40000 ng/mL | % Growth inhibition ([2]; Table 1, S. aureus ATCC 29213): 13.4 ± 3.4% | MIC [3, 23]: > 40000 ng/mL | % Growth inhibition ([3]; Table 1, S. aureus NCTC 12493): 46.0 ± 0.6%
